Experimental data: patent US20020028851A1, “Guanylhydrazones and their use to treat inflammatory conditions” (priority 1994, published 2002)

Legend:
[1] = Pharmacokinetics by HPLC of serum; format: in vivo, rats
Protocol: Male Sprague-Dawley rats (Harlan Sprague Dawley, Indianapolis, Ind., USA) were anesthetized with ketamine and the right carotid artery cannulated with polyethylene tubing (PE-50). […] At 0, 5, 15, 30, 60, 90, 120, 180, 240, 300, 360 minutes 400 μl of blood was removed, stored at 4° C. for 4 hr, and then centrifuged at 15,000 ×g for 10 min, and the serum layer collected. Sodium azide was added to 0.0l v/v to prevent microbial growth and pentamidine was added to 5 μg/ml. Twenty-five μl of the resulting sample was analyzed by the HPLC method described.
The HPLC method was applied towards estimating the pharmacokinetic parameters of Compound No. 14 in adult rats receiving a 10 mg/kg dose as a single intra-arterial injection. In these experiments, the solid-phase extraction step was omitted due to the small volume of each sample, and the relatively large amount of Compound No. 14 which was recovered. Typical serum decay curves were obtained (FIG. 17, solid line), and the method of residuals, Gibaldi, M., & Perrier, D., 1982, PHARMACOKINETICS (Marcel Dekker, New York) pp. 433-444, was used to calculate the pharmacokinetic parameters (FIG. 17, dashed lines).

TNF = TNF production by LPS/γIFN-stimulated RAW 264.7 cells; format: cell-based, murine
Protocol: RAW 264.7 cells were plated in standard 6-well culture plates at a density of 10^6/well and allowed to adhere for from 2 hr to overnight. The medium was then replaced with medium containing the compound to be tested. One hour later, the medium was supplemented so as to contain 25 U/ml γIFN and 0.1 μg/ml LPS and the cultures incubated a further 18 hr. The medium was then collected, and cell debris removed by centrifugation. This conditioned supernatant was then assayed for the presence of TNF using standard methodologies: L929 cell cytotoxicity bioassay, radioimmunoassay or ELISA, and Western blotting with antibodies against murine TNF.

RAW 264.7 cells = assay: Whole cell inhibition assay for arginine uptake; format: cell-based, murine
MIP-1β = assay: Cytokine production by LPS/γIFN-stimulated human PBMC: MIP-1β; format: cell-based; conditions: γIFN+LPS, 18 hr
Excerpt: Similar results concerning a variety of cytokines in addition to TNF, e.g., IL-6 and Macrophage Inflammatory Proteins-1α and -1β (MIP-1α and MIP-1β) were obtained using human peripheral blood as a source of monocytes. Human peripheral blood mononuclear cells (PBMC) were isolated using “FICOLL®”-based methods and plated in standard 6-well culture plates at a concentration of 10^6/well and allowed to adhere for from 2 hr to overnight whereupon non-adherent cells were washed out and the medium was then replaced with medium containing the compound to be tested. One hour later, the medium was supplemented so as to contain 25 U/ml γIFN and 0.1 μg/ml LPS and the cultures incubated a further 18 hr. The medium was then collected, and cell debris removed by centrifugation. This conditioned supernatant was then assayed for the presence of cytokines using the standard methodologies of L929 cell cytotoxicity bioassay and immunoassay (ELISA).

[2] = test system: Endothelial Derived Relaxing Factor (EDRF) activity; assay: Acetylcholine-induced hypotensive (EDRF) response; format: in vivo, rats; conditions: 50 mg/Kg single intra-arterial dose; blood pressure 30 sec after ACh
Protocol: Female Sprague-Dawley rats (225-250 g body weight) were anesthetized with nembutal (50 mg/Kg, i.p.), a tracheostomy tube was inserted, and the carotid artery and jugular vein cannulated by standard methods using polyethylene tubing (PE 50). Tracey, K. J., et al., 1986, SCIENCE 234, 470-474. Blood pressure was recorded continuously with a pressure transducer and recorder (Model RS-3200, Gould Inc.,). In the experiment shown here, animals received a single sterile intra-arterial dose of either N^G-methyl-L-arginine (NMA; Sigma; 10 mg/Kg), Compound No. 14 (50 mg/Kg), or vehicle (0.4 ml). Acetylcholine (ACh) diluted in LPS-free sterile water was administered via the jugular vein cannula at the doses indicated. The solutions were diluted to produce a constant injectable volume of 1 ml/Kg body weight.
The hypotensive (EDRF) response was measured as the decline in mean arterial blood pressure recorded 30 sec after administration of ACh. The number of animals studied at each dose of acetylcholine was 4-6 for each experimental condition; data are expressed as the mean +s.e.m.

[3] = test system: Nude mice (nu/nu), AtT-20 cells; assay: Tumor-associated cachexia model, urinary urea loss; format: in vivo; conditions: for URINARY UREA LOSS / URINARY UREA LOSS, Sum totals: 0.4 mg/Kg daily i.p.; for URINARY UREA LOSS, Sum totals: sum of listed days
Protocol: An animal model of tumor-associated protein catabolic illness (cachexia) was employed to directly test the efficacy of Compound No. 14 in reducing whole-body nitrogen losses. Tumors were induced in the appropriate groups by intramuscular inoculation with 15×10^6 AtT-20 cells; this model is known to cause a protein catabolic illness characterized by the consumption of normal quantities of food, but 20% net whole-body losses of protein within 14 days. Compound No. 14 was administered to the “treated” groups in a daily dose of 0.4 mg/Kg, intraperitoneal. Nude mice (nu/nu) were housed in metabolic cages (4 per cage) to facilitate collection of daily urine samples for 14 days. Food intake was measured daily. There were four groups of animals: 1) untreated, non-tumor bearing controls; 2) untreated, tumor-bearing; 3) treated, tumor-bearing, and 4) treated, non-tumor-bearing. Urine was collected and urinary urea losses quantified.

[4] = rats, 10 mg/kg single intra-arterial injection, n=3
[5] = over the 14 day period, per mouse

## CC(=NNC(=N)N)c1cc(NC(=O)CCCCCCCCC(=O)Nc2cc(C(C)=NNC(=N)N)cc(C(C)=NNC(=N)N)c2)cc(C(C)=NNC(=N)N)c1.Cl.Cl.Cl.Cl [Compound 14, N,N′-bis(3,5-diacetyl-phenyl)decanediamide tetrakis(amidinohydrazone) tetrahydrochloride]
[1]; intraperitoneal or oral dosing routes (data not shown)
  absorption and bioavailability: not rapidly absorbed, and may have a low bioavailability
[1]; [4]
  distribution half-life (t½α): 2.41 ± 0.69 min
  distribution rate constant (α): 0.31 ± 0.09 min⁻¹
  elimination half-life (t½β): 5.02 ± 0.00 h
  elimination rate constant (β): 0.0023 ± 0.0000 min⁻¹
  total clearance (CL): 5.62 ± 0.47 mL/min
  volume of distribution (Vd): 2.45 ± 0.21 L
[1]; single doses of 0.4-1.0 mg/kg, from pharmacokinetic constants and FIG. 17
  peak plasma levels: > 0.5 µM
TNF; 10 μM, L929 cell bioassay, 18 hr
  reduction of TNF accumulation in the culture medium: more than 99%
TNF; 5 and 25 μM
  TNF protein in the medium (Western blot): absence of TNF protein
RAW 264.7 cells; stimulated 8 hours previously, then exposed 10 minutes in arginine-free buffer, mean±std. err., n=3, read-out: I.C.50 for arginine uptake
  IC50: 60 ± 15 µM
RAW 264.7 cells; unstimulated RAW 264.7
  sensitivity of arginine uptake of unstimulated cells: insensitive
MIP-1β
  concentration that effectively inhibited production of MIP-1β: 10 to 20 µM
[2]
  acetylcholine-induced EDRF activity in vivo: did not suppress
[3]; Controls, Treated (non-tumor-bearing), day 2
  URINARY UREA LOSS: 193 mg/group
[3]; Controls, Treated (non-tumor-bearing), day 4
  URINARY UREA LOSS: 285 mg/group
[3]; Controls, Treated (non-tumor-bearing), day 6
  URINARY UREA LOSS: 397 mg/group
[3]; Controls, Treated (non-tumor-bearing), day 7
  URINARY UREA LOSS: 247 mg/group
[3]; Controls, Treated (non-tumor-bearing), day 8
  URINARY UREA LOSS: 257 mg/group
[3]; Controls, Treated (non-tumor-bearing), day 10
  URINARY UREA LOSS: 216 mg/group
[3]; Controls, Treated (non-tumor-bearing), day 11
  URINARY UREA LOSS: 239 mg/group
[3]; Controls, Treated (non-tumor-bearing), day 12
  URINARY UREA LOSS: 203 mg/group
[3]; Controls, Treated (non-tumor-bearing), day 13
  URINARY UREA LOSS: 242 mg/group
[3]; Controls, Treated (non-tumor-bearing), day 14
  URINARY UREA LOSS: 157 mg/group
[3]; Controls, Treated (non-tumor-bearing)
  URINARY UREA LOSS, Sum totals: 2436 mg/group
[3]; Tumor, Treated, day 2 after tumor
  URINARY UREA LOSS: 195 mg/group
[3]; Tumor, Treated, day 4 after tumor
  URINARY UREA LOSS: 368 mg/group
[3]; Tumor, Treated, day 6 after tumor
  URINARY UREA LOSS: 295 mg/group
[3]; Tumor, Treated, day 7 after tumor
  URINARY UREA LOSS: 312 mg/group
[3]; Tumor, Treated, day 8 after tumor
  URINARY UREA LOSS: 275 mg/group
[3]; Tumor, Treated, day 10 after tumor
  URINARY UREA LOSS: 206 mg/group
[3]; Tumor, Treated, day 11 after tumor
  URINARY UREA LOSS: 219 mg/group
[3]; Tumor, Treated, day 12 after tumor
  URINARY UREA LOSS: 115 mg/group
[3]; Tumor, Treated, day 13 after tumor
  URINARY UREA LOSS: 201 mg/group
[3]; Tumor, Treated, day 14 after tumor
  URINARY UREA LOSS: 187 mg/group
[3]; Tumor, Treated
  URINARY UREA LOSS, Sum totals: 2373 mg/group
[3]; over the 14 day period
  loss of urea prevented: approximately 200 mg urea/mouse
[3]; [5]
  nitrogen retained (equivalent of urea loss prevented): approximately 100 mg
  protein retained (equivalent of urea loss prevented): ~625 mg
  wet muscle mass retained (equivalent of urea loss prevented): ~2.7 g
